This is an account of results in patent publication US20140357718A1 (priority 2013, published 2014).

Read-outs that look alike come from different tables or passages of the source.

What all share (assay type): cell-based
Test [1] has as its system Campylobacter jejuni. As to the kind of experiment: Bacterial growth in pure culture with test composition (SYBR Green fluorescence). The note with it: C. jejuni, 19 h, 40° C., anaerobic.
The test system of test [2] is Lactobacillus crispatus. As to the kind of experiment: Bacterial growth in pure culture with test composition (turbidity 660 nm). The note with it: L. crispatus, 23 h, 40° C., anaerobic.
For test [3], the system named is Escherichia coli. Described as above. The note with it: E. coli, 9 h, 40° C., anaerobic.
In test [4] the test system is Clostridium perfringens. The note with it: C. perfringens, 23 h, 40° C., anaerobic.
Setting [5] is: free pH, 0.01% (w/v) composition.
Where [6] appears, read: free pH, 0.1% (w/v) composition.
Setting [7] is: free pH, 0.3% (w/v) composition.
[8] abbreviates: pH 6.5 (neutralised with NaOH), 0.01% (w/v) composition.
The mark [9] stands for this setting: pH 6.5 (neutralised with NaOH), 0.1% (w/v) composition.
[10] abbreviates: pH 6.5 (neutralised with NaOH), 0.3% (w/v) composition.

Turning to `O=CO` [Composition C, formic acid], the “Growth of Indicator Bacteria (% of Growth Control)” value (“Growth … (% of Growth Control)” for short) in test [1] (setting [5]) is on record as 170%; in test [1] (setting [6]), 20%; in test [1] (setting [7]) it was 10%; in test [1] (setting [8]) it was 170%; in test [1] (setting [9]), 115%; in test [1] (setting [10]) it was 65%. Also, the “Growth … (% of Growth Control)” value in test [2] (setting [5]) is given as 95%; in test [2] (setting [6]), 90%; in test [2] (setting [7]), 75%; in test [2] (setting [8]), 120%; in test [2] (setting [9]), 115%; in test [2] (setting [10]) it was 95%. Further, the “Growth … (% of Growth Control)” value in test [3] (setting [5]) came to 80%; in test [3] (setting [6]), 20%; in test [3] (setting [7]), 15%; in test [3] (setting [8]), 110%; in test [3] (setting [10]) it was 45%; in test [4] (setting [5]), 75%. Moreover, the “Growth … (% of Growth Control)” value is reported as 20% in test [4] (setting [6]); 15% in test [4] (setting [7]); 100% in test [4] (setting [8]); 65% in test [4] (setting [9]); 60% in test [4] (setting [10]).
